These results are taken from patent publication US8580941B2, “Epididymal lipocalin gene and uses thereof” (Vanderbilt University, priority 2000, dated 2013).

For this assay, the system named is mEP17 protein. Nature of the assay: Regulation of mEP17 protein expression (Western blotting and immunohistochemistry) in treated mice. Format: in vivo, mouse. The text has this: The regulation of mEP17 protein expression was investigated using Western blotting and immunohistochemistry in castrated mice, castrated testosterone supplemented mice, unilateral castrated mice, unilateral cryptorchid mice, and busulphan-treated mice. As previously observed at the mRNA level (FIGS. 15A-15C), mEP17 protein disappeared from the initial segment two days after bilateral castration and was not restored by testosterone treatment. Similarly, after unilateral castration, mEP17 protein disappeared from the castrated side, but not from the non-castrated side.
To determine whether germ cell-associated testicular factors can regulate mEP17, spermatogenesis was disrupted using cryptorchidism or busulphan treatment. One month following cryptorchidism, mEP17 protein was not detected in the initial segment of the cryptorchid epididymis but was detected at normal levels in the scrotal epididymis. In cryptorchidism, the testis and the epididymis are exposed to abdominal temperature. To distinguish the effects of abdominal temperature on the testis or epididymis, spermatogenesis was also disrupted by busulphan treatment.
(In western blotting, separated proteins are transferred to a membrane and probed.)

For the compound `CS(=O)(=O)OCCCCOS(C)(=O)=O` [busulphan], the “level of mEP17 protein compared to untreated controls” value (busulphan-treated mice, following a 35-day treatment (disruption of spermatogenesis)) is “drastically reduced”.

Regarding `C[C@]12CC[C@H]3[C@@H](CCC4=CC(=O)CC[C@@]43C)[C@@H]1CC[C@@H]2O` [testosterone], where the note is “castrated testosterone supplemented mice, protein disappeared two days after bilateral castration”, the “mEP17 protein in the initial segment of the epididymis after testosterone treatment” value is reported as “not restored”.
